Assay [1] concerns the target T1, human 5-HT6 receptor (Homo sapiens, UniProt P50406).
T1 construct: expressed in transfected cells; host or cells: CHO cells (membrane preparation)
The assay can be described thus: Serotonin 5-HT6 receptor binding assay ([3H]-clozapine). Conditions: 100 nM test drug, [3H]-clozapine 2 nM, human 5-HT6 receptor-expressing CHO cell membrane; for inhibition at 0.1 µM: read-out: BINDING INHIBITION RATE (%) 5HT6 100 nM. The protocol: (3) Serotonin 5-HT6 Receptor Binding Assay
After a reaction in a total volume of 200 μL of 50 mM Tris-HCl (pH=7.6), 4 mM CaCl2, and 0.5 mM EDTA buffer solution containing 50 μL of [^3H]-clozapine (final concentration 2 nM), 1 μL of test drug in DMSO, and 149 μL of human 5-HT6 receptor-expressing CHO cell membrane sample, human 5-HT6 receptor binding activity of [^3H]-clozapine was measured. The reaction solution let stand for 40 minutes at room temperature, and then it was quickly added on a glass fiber filter plate (Multiscreen FB, Millipore inc.) coated with 0.3% polyethyleneimine (PEI) and filtered under reduced pressure. The glass fiber filter was washed with 200 μL of ice-cooled 50 mM Tris-HCl (pH=7.6) twice, repeatedly filtered under reduced pressure, and then transferred to a vial containing 4 mL of Ecoscint A (National Diagnostics inc.). The residual radioactivity on the glass fiber filter was measured by a liquid scintillation counter. Nonspecific binding was measured in the presence of 10 μM of SB-258585, and [^3H]-clozapine binding inhibition rate in the presence of 100 nM of test drug was determined.

Assay [2] concerns the target T2, human α1D receptor (Homo sapiens, UniProt P25100).
T2 construct: expressed in transfected cells; host or cells: CHO cells (membrane preparation)
T2 sequence (P25100 1-572): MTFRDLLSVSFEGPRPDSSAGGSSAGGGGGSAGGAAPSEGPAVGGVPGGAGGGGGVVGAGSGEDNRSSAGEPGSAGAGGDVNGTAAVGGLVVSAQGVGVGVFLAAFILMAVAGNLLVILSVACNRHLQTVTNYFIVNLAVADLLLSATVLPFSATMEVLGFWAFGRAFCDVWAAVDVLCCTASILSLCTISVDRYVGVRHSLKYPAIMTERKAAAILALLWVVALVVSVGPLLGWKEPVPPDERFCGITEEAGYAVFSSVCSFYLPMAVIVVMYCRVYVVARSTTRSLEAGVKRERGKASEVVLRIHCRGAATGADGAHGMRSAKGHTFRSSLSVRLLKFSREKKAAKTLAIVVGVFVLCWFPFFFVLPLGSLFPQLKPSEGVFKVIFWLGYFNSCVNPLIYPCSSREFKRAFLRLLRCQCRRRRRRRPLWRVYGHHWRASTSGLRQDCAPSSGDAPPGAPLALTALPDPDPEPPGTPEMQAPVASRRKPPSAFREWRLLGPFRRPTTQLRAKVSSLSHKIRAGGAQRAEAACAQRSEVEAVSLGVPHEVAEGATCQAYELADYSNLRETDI
Put plainly: Adrenaline α1D receptor binding assay ([3H]-prazosin). The settings on record: 100 nM test drug, [3H]-prazosin 0.6 nM, human α1D receptor-expressing CHO cell membrane; for inhibition at 0.1 µM: read-out: BINDING INHIBITION RATE (%) α1D 100 nM. The method, then:
(4) Adrenaline α1D Receptor Binding Assay
After a reaction in a total volume of 200 μL of 50 mM Tris-HCl (pH=7.6) buffer solution containing 50 μL of [^3H]-prazosin (final concentration 0.6 nM), 1 μL of test drug in DMSO, and 149 μL of human α1D receptor-expressing CHO cell membrane sample, human α1D receptor binding activity of [^3H]-prazosin was measured. The reaction solution let stand for 30 minutes at room temperature, and then it was quickly added on a glass fiber filter plate (Multiscreen FB, Millipore inc.) coated with 0.3% polyethyleneimine (PEI) and filtered under reduced pressure. The glass fiber filter was washed with 200 μL of ice-cooled 50 mM Tris-HCl (pH=7.6) twice, repeatedly filtered under reduced pressure, and then transferred to a vial containing 4 mL of Ecoscint A (National Diagnostics inc.). The residual radioactivity on the glass fiber filter was measured by a liquid scintillation counter. Nonspecific binding was measured in the presence of 1 μM of prazosin, and [^3H]-prazosin binding inhibition rate in the presence of 100 nM of test drug was determined.

Assay [3] concerns the target human D2L receptor (Homo sapiens, UniProt P14416). Put plainly: Dopamine D2L receptor binding assay ([3H]-spiperone). The settings on record: 10 nM test drug, [3H]-spiperone 0.5 nM, human D2L receptor-expressing CHO cell membrane; for inhibition at 0.01 µM: read-out: BINDING INHIBITION RATE (%) D2L 10 nM. The protocol:
(1) Dopamine D2L Receptor Binding Assay
D2L receptor binding assay was performed in reference to a method described by Hirose et al. (Japan. J. Pharmacol., 53, 321-329, 1990). After a reaction in a total volume of 200 μL of 50 mM Tris-HCl (pH=7.6) buffer solution containing 50 μL of [^3H]-spiperone (final concentration 0.5 nM), 1 μL of test drug in DMSO, and 149 μL of human D2L receptor-expressing CHO cell membrane sample, human D2L receptor binding activity of [^3H]-spiperone was measured. The reaction solution let stand for 60 minutes at room temperature, and then it was quickly added on a glass fiber filter plate (Multiscreen FB, Millipore inc.) coated with 0.3% polyethyleneimine (PEI) and filtered under reduced pressure. The glass fiber filter was washed with 200 μL of ice-cooled 50 mM Tris-HCl (pH=7.6) twice, repeatedly filtered under reduced pressure, and then transferred to a vial containing 4 mL of Ecoscint A (National Diagnostics inc.). The residual radioactivity on the glass fiber filter was measured by a liquid scintillation counter. Nonspecific binding was measured in the presence of 10 μM of spiperone, and [^3H]-spiperone binding inhibition rate in the presence of 10 nM of test drug was determined. The larger binding inhibition rate (%) means that test drug has the higher binding affinity for human D2L receptor.

Assay [4] deals with T3, human 5-HT2A receptor (Homo sapiens, UniProt P28223).
T3 construct: expressed in transfected cells; host or cells: CHO cells (membrane preparation)
Put plainly: Serotonin 5-HT2A receptor binding assay ([3H]-ketanserin). Conditions: 10 nM test drug; [3H]-ketanserin 1 nM; human 5-HT2A receptor-expressing CHO cell membrane; read-out: BINDING INHIBITION RATE (%) 5HT2A 10 nM. The method, then:
(2) Serotonin 5-HT2A Receptor Binding Assay
5-HT2A receptor binding assay was performed in reference to a method described by Hirose et al. (Japan. J. Pharmacol., 53, 321-329, 1990). After a reaction in a total volume of 200 μL of 50 mM Tris-HCl (pH=7.6) buffer solution containing 50 μL of [^3H]-ketanserin (final concentration 1 nM), 1 μL of test drug in DMSO, and 149 μL of human 5-HT2A receptor-expressing CHO cell membrane sample, human 5-HT2A receptor binding activity of [^3H]-ketanserin was measured. The reaction solution let stand for 15 minutes at 37° C., and then it was quickly added on a glass fiber filter plate (Multiscreen FB, Millipore inc.) coated with 0.05% Brij 35 and filtered under reduced pressure. The glass fiber filter was washed with 200 μL of ice-cooled 50 mM Tris-HCl (pH=7.6) twice, repeatedly filtered under reduced pressure, and then transferred to a vial containing 4 mL of Ecoscint A (National Diagnostics inc.). The residual radioactivity on the glass fiber filter was measured by a liquid scintillation counter. Nonspecific binding was measured in the presence of 10 μM of MDL-100907, and [^3H]-ketanserin binding inhibition rate in the presence of 1 nM or 10 nM of test drug was determined.

Sequence of human D2L receptor (P14416 whole entry): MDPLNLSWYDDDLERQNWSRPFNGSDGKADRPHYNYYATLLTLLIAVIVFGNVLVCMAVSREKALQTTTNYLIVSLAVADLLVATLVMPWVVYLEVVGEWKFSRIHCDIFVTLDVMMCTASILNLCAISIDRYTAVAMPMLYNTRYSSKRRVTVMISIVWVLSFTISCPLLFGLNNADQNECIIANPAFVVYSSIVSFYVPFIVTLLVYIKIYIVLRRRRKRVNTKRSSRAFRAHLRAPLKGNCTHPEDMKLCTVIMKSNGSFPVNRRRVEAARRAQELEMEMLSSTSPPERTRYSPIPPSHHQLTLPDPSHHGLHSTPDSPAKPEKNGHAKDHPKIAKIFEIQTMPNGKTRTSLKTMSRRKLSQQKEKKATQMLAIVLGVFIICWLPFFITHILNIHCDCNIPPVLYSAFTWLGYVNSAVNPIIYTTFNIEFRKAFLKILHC
T1 sequence (P50406 whole entry): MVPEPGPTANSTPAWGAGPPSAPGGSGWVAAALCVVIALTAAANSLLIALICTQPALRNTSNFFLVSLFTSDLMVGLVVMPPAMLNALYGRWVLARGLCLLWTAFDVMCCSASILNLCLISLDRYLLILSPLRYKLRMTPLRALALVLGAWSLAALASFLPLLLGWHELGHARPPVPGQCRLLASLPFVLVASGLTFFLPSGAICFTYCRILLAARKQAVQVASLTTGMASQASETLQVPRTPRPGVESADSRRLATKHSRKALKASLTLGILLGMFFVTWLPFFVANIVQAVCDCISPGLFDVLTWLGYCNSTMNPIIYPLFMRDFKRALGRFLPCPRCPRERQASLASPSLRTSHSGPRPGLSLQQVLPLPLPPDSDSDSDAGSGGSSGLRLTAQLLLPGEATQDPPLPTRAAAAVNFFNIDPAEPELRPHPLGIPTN
T3 sequence (P28223 whole entry): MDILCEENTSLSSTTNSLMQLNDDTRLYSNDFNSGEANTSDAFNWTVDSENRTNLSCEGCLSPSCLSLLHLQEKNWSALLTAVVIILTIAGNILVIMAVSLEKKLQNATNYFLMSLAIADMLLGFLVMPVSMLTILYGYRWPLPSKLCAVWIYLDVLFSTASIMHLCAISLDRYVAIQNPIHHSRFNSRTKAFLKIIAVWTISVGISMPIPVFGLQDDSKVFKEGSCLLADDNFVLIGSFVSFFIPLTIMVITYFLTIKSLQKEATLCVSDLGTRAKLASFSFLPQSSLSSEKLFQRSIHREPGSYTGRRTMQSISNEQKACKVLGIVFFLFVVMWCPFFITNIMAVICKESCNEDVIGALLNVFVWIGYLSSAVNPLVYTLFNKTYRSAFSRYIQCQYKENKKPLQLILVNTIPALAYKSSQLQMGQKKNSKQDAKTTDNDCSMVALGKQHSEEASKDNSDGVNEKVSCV

As for “(S)-(2-(2-(4-(6-Fluorobenzo[d]isoxazol-3-yl)piperidin-1-yl)ethyl)pyrrolidin-1-yl)(3-phenyl-1H-pyrazol-5-yl)methanone hydrochloride [Example 170]”, the “BINDING INHIBITION RATE (%) 5HT6 100 nM” value in assay [1] stood at 95%. In assay [2], the “BINDING INHIBITION RATE (%) α1D 100 nM” value worked out at 83%. Besides, the “BINDING INHIBITION RATE (%) D2L 10 nM” value in assay [3] is 87%.

`Cc1ccc2cc(C(=O)N3C[C@H](F)C[C@H]3CCN3CCC(C(=O)c4ccc(F)cc4)CC3)[nH]c2c1` [Example 53]: the inhibition at 0.1 µM in assay [1] came to 94%; in assay [2], 48%. In addition, the inhibition at 0.01 µM in assay [3] is 89%.

Consider `O=C(/C=C/c1ccc2c(c1)OCO2)N1CCC[C@H](CCN2CCC(c3noc4cc(F)ccc34)CC2)C1` [Example 14], for which the results for the inhibition at 0.1 µM in assay [1] and in assay [2] were 92% and 89%, respectively. Moreover, in assay [3], the inhibition at 0.01 µM came to 75%.

As for `CC(=O)Nc1cccc2cc(C(=O)N3CCC[C@H]3CCN3CCC(C(=O)c4ccc(F)cc4)CC3)n(C)c12` [Example 63], the inhibition at 0.1 µM in assay [1] came out at 17%. Moreover, in assay [3], the inhibition at 0.01 µM is 0%.

`Cc1ccc2cc(C(=O)N3[C@H](CCN4CCC(C(=O)c5ccc(F)cc5)CC4)CC[C@@H]3C)[nH]c2c1` [Example 166, ((2S,5S)-2-(2-(4-(4-Fluorobenzoyl)piperidin-1-yl)ethyl)-5-methylpyrrolidin-1-yl)(6-methyl-1H-indol-2-yl)methanone]: the inhibition at 0.1 µM was 97% in assay [1] and 62% in assay [2]. Besides, in assay [3], the inhibition at 0.01 µM came out at 88%.

For `Cc1ccc2cc(C(=O)N3CCC[C@H]3CCN3CCN(c4n[nH]c5cc(F)ccc45)CC3)[nH]c2c1` [Example 24], the inhibition at 0.1 µM in assay [1] stood at 98%; in assay [2], 64%. In assay [3], the inhibition at 0.01 µM was determined as 88%.

For `O=C(c1ccc(F)cc1)C1CCN(CC[C@@H]2CCCN2C(=O)c2[nH]c3ccccc3c2-c2ccccc2)CC1` [Example 47], the inhibition at 0.1 µM in assay [1] worked out at 94%; in assay [2] it was 85%. The inhibition at 0.01 µM in assay [3] was 72%.

For `O=C(c1cccc(-c2ccccc2)c1)N1CCC[C@@H](CCN2CCN(c3nsc4ccccc34)CC2)C1` [Example 57], the inhibition at 0.1 µM was 86% in assay [1] and 76% in assay [2]. The inhibition at 0.01 µM in assay [3] was 69%.

For `Cc1ccc2cc(C(=O)N3CCC[C@H]3CCN3CCN(c4n[nH]c5ccc(F)cc45)CC3)[nH]c2c1` [Example 25], the inhibition at 0.1 µM in assay [1] turned out to be 82%. The inhibition at 0.01 µM in assay [3] came out at 28%.

Consider `CCOCCO[C@@H]1C[C@@H](CCN2CCC(c3c[nH]c4ccccc34)CC2)N(C(=O)c2cc3ccc(OC)cc3[nH]2)C1` [Example 37], for which, in assay [1], the inhibition at 0.1 µM amounted to 78%. Further, the inhibition at 0.01 µM in assay [4] was 91%; in assay [3] it was 0%.

Regarding `O=C(c1ccc(F)cc1)C1CCN(CC[C@@H]2CCCN2C(=O)c2cc3ccccc3n2-c2ccncc2)CC1` [Example 49], the inhibition at 0.1 µM in assay [1] was 75%; in assay [2] it was 30%. The inhibition at 0.01 µM in assay [3] came out at 83%.

As for `C[C@H]1CC[C@@H](CCN2CCC(C(=O)c3ccc(F)cc3)CC2)N1C(=O)c1cc2ccc(SC(F)(F)F)cc2[nH]1` [Example 168, ((2S,5S)-2-(2-(4-(4-Fluorobenzoyl)piperidin-1-yl)ethyl)-5-methylpyrrolidin-1-yl)(6-(trifluoromethylthio)-1H-indol-2-yl)methanone], the inhibition at 0.1 µM worked out at 94% in assay [1] and 61% in assay [2]. Besides, the inhibition at 0.01 µM in assay [3] is 81%.

`O=C(c1ccc(F)cc1)C1CCN(CC[C@@H]2CCCN2C(=O)c2cc3ccccc3n2C2CCOCC2)CC1` [Example 48]: the inhibition at 0.1 µM in assay [1] amounted to 97%; in assay [2], 40%. The inhibition at 0.01 µM in assay [3] was determined as 82%.

`O=C(c1cc2cc(O)ccc2[nH]1)N1CCOC[C@H]1CCN1CCC(c2c[nH]c3ccccc23)CC1` [Example 41]: the inhibition at 0.1 µM in assay [1] turned out to be 78%; in assay [2], 81%. Besides, the inhibition at 0.01 µM in assay [3] came to 85%.

Take `N#CCCc1ccc2c(Cl)c(C(=O)N3CCC[C@H]3CCN3CCC(C(=O)c4ccc(F)cc4)CC3)[nH]c2c1` [Example 55]: in assay [1], the inhibition at 0.1 µM came out at 100%. The inhibition at 0.01 µM in assay [3] came to 83%.

Regarding `C[C@H]1CC[C@@H](CCN2CCC(C(=O)c3ccc(F)cc3)CC2)N1C(=O)c1cc2ccc(C(F)(F)F)cc2[nH]1` [Example 167, ((2S,5S)-2-(2-(4-(4-Fluorobenzoyl)piperidin-1-yl)ethyl)-5-methylpyrrolidin-1-yl)(6-(trifluoromethyl)-1H-indol-2-yl)methanone], the inhibition at 0.1 µM in assay [1] was determined as 95%; in assay [2], 33%. Further, the inhibition at 0.01 µM in assay [3] was determined as 75%.

For `O=C(c1cc2ccc(F)cc2[nH]1)N1CCC[C@H](CN2CCN(c3n[nH]c4ccccc34)CC2)C1` [Example 22], the inhibition at 0.1 µM in assay [1] was 85%. In addition, in assay [3], the inhibition at 0.01 µM was determined as 26%.

For the origin of these results see patent publication US8541585B2, “N-acyl cyclic amine derivative or pharmaceutically acceptable salt thereof” (Dainippon Sumitomo Pharma Co., Ltd., priority 2010, dated 2013).
